We go through 11 compounds from patent publication US11390616B2 (BRISTOL-MYERS SQUIBB COMPANY, priority 2015, dated 2022).

In the assay the target is T1, human APJ receptor (Homo sapiens, UniProt P35414).
T1 construct: expressed in transfected cells; host or cells: HEK293
T1 sequence (P35414 1-380): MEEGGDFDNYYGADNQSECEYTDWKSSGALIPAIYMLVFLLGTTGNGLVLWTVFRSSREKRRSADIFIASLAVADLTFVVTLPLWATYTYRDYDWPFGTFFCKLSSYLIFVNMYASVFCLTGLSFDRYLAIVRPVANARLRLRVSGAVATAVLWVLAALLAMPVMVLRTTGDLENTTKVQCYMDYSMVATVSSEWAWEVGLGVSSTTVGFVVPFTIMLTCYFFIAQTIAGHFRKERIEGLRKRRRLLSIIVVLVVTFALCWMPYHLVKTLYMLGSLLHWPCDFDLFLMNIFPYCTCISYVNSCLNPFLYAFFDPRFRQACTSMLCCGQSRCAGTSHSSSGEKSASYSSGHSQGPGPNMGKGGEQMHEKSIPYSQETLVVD
Nature of the assay: Intracellular cAMP accumulation assay (APJ hcAMP, HTRF). It counts as cell-based. Particulars: HEK293 cells stably expressing human APJ receptor; inhibition of forskolin-mediated cAMP production; read-out: APJ cAMP Potency range. In short, it runs like this:
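Inhibition of forskolin (2 μM)-driven cAMP, with […], measured by HTRF after 30 min room-temperature compound exposure of stably transfected HEK293 cells. cAMP read from a standard curve; variable-slope fit gives EC50, and maximal inhibition is normalised to (Pyr1)apelin-13 as 100%.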

Turning to `CCc1cccc(CC)c1-n1c(-c2nc(C)cs2)nc(=O)c(Cc2ccc(-c3ccc(F)cc3C(N)=O)c(F)c2)c1O` [Example 82, 4′-{[1-(2,6-diethylphenyl)-6-hydroxy-2-(4-methyl-1,3-thiazol-2-yl)-4-oxo-1,4-dihydropyrimidin-5-yl]methyl}-2′,4-difluoro-[1,1′-biphenyl]-2-carboxamide], the EC50 was in the range of 0.01 to 10 nM.

As to `CCc1cccc(CC)c1-n1c(-c2csc(C)n2)nc(=O)c(Cc2ccc(-c3ccncc3C)c(F)c2)c1O` [Example 74, 1-(2,6-diethylphenyl)-5-{[3-fluoro-4-(3-methylpyridin-4-yl)phenyl]methyl}-6-hydroxy-2-(2-methyl-1,3-thiazol-4-yl)-1,4-dihydropyrimidin-4-one], the EC50 lay in the range of 0.01 to 10 nM.

Take `CCCCc1nc(=O)c(Cc2ccc(C3CC3)cc2)c(O)n1[C@@H](CC)c1cccc(C#N)c1` [Example 101, 3-[(1S)-1-{2-butyl-5-[(4-cyclopropylphenyl)methyl]-6-hydroxy-4-oxo-1,4-dihydropyrimidin-1-yl}propyl]benzonitrile]: the EC50 was 0.01 to 10 nM.

Consider `CCc1cccc(CC)c1-n1c(-c2ccn(C3CC3)n2)nc(=O)c(Cc2ccc(-c3ccc(F)cc3C(N)=O)c(F)c2)c1O` [Example 94, 4′-{[2-(1-cyclopropyl-1H-pyrazol-3-yl)-1-(2,6-diethylphenyl)-6-hydroxy-4-oxo-1,4-dihydropyrimidin-5-yl]methyl}-2′,4-difluoro-[1,1′-biphenyl]-2-carboxamide], for which the EC50 was 0.01 to 10 nM.

With `CC[C@@H](c1cc(F)cc(F)c1)n1c(CCC2CC2)nc(=O)c(Cc2ccc(-c3cccnc3C)cc2)c1O` [Example 109, 2-(2-cyclopropylethyl)-1-[(1S)-1-(3,5-difluorophenyl)propyl]-6-hydroxy-5-{[4-(2-methylpyridin-3-yl)phenyl]methyl}-1,4-dihydropyrimidin-4-one], the EC50 fell in the range of 0.01 to 10 nM.

As for `CCCCc1nc(O)c(Cc2ccc(S(C)(=O)=O)cc2)c(=O)n1-c1c(OC)cccc1OC` [Example 7, 2-butyl-3-(2,6-dimethoxyphenyl)-6-hydroxy-5-[(4-methanesulfonylphenyl)methyl]-3,4-dihydropyrimidin-4-one], the EC50 was 10 to 100 nM.

With `CCOCc1nc(O)c(Cc2coc(-c3ccc(Cl)cc3)n2)c(=O)n1-c1c(OC)cccc1OC` [Example 33, 5-{[2-(4-chlorophenyl)-1,3-oxazol-4-yl]methyl}-3-(2,6-dimethoxyphenyl)-2-(ethoxymethyl)-6-hydroxy-3,4-dihydropyrimidin-4-one], the EC50 is 10 to 100 nM.

Take `CCCCc1nc(O)c(Cc2cc(C)on2)c(=O)n1-c1c(OC)cccc1OC` [Example 8, 2-butyl-3-(2,6-dimethoxyphenyl)-6-hydroxy-5-[(5-methyl-1,2-oxazol-3-yl)methyl]-3,4-dihydropyrimidin-4-one]: the EC50 lay in the range of 10 to 100 nM.

Regarding `COc1cccc(OC)c1-n1c(CCC(C)C)nc(O)c(Cc2ccc(-n3ccccc3=O)cc2)c1=O` [Example 34, 3-(2,6-dimethoxyphenyl)-6-hydroxy-2-(3-methylbutyl)-5-{[4-(2-oxo-1,2-dihydropyridin-1-yl)phenyl]methyl}-3,4-dihydropyrimidin-4-one], the EC50 lay within 0.01 to 10 nM.

For `CCCCc1nc(=O)c(Cc2cccc(-c3ccc(F)cc3C(N)=O)c2)c(O)n1[C@@H](CC)c1cc(F)cc(F)c1` [Example 131, 3′-({2-butyl-1-[(1S)-1-(3,5-difluorophenyl)propyl]-6-hydroxy-4-oxo-1,4-dihydropyrimidin-5-yl}methyl)-4-fluoro-[1,1′-biphenyl]-2-carboxamide], the EC50 lay within 10 to 100 nM.

Take `CCCCc1nc(O)c(Cc2ccc(-c3nc(C)no3)cc2)c(=O)n1-c1c(OC)cccc1OC` [Example 10, 2-butyl-3-(2,6-dimethoxyphenyl)-6-hydroxy-5-{[4-(3-methyl-1,2,4-oxadiazol-5-yl)phenyl]methyl}-3,4-dihydropyrimidin-4-one]: the EC50 was in the range of 0.01 to 10 nM.
